Data taken from publication PMC12433258, “Binding Differences of the Peptide‐Substrate–Binding Domain of Collagen Prolyl 4‐Hydroxylases I and II for Proline‐ and Hydroxyproline‐Rich Peptides” (Proteins, 2025).
Read-outs that look alike come from different tables or passages of the source. No end group written: not given here.

Key:
[1] = molecular target: T1, PSB‐I^143–238 construct (peptide‐substrate–binding domain of C‐P4H‐I α‐subunit) (Homo sapiens, UniProt P13674); assay: ITC binding of proline‐rich peptides to the PSB‐I^143–238 construct; details: 25°C, 20 mM Bis‐Tris, 100 mM glycine; for ΔG / ΔH / −TΔS: pH 6.8, fixed n = 1, average ± SD of three measurements
T1 construct: made in house; host or cells: E. coli Rosetta(DE3)pLysS, pET22b(+)
Excerpt: The PSB‐I^143–238 construct was cloned using standard molecular biology protocols, and a codon‐optimized P4ha1 cDNA for the full‐length C‐P4H‐I α‐subunit (GenScript Biotech Corporation, New Jersey, USA) was used as the template. This construct was amplified using a forward primer containing an NdeI site (underlined) (5′‐[…]‐3′) and a reverse primer containing an XhoI site (underlined) (5′‐[…]‐3′). The amplified product was digested with NdeI and XhoI and ligated into a pET22b(+) plasmid (Novagen, Wisconsin, USA) in‐frame with a C‐terminal His6‐tag, and its sequence (Ser143‐Glu238 (Figure 1A), with C‐terminal Leu‐Glu‐His6–tag) was verified by DNA sequencing in the Biocenter Oulu Sequencing Centre. PSB‐I^143–238 was expressed using Rosetta(DE3)pLysS cells in LB medium containing 100 μg/mL ampicillin and 34 μg/mL chloramphenicol. The cells were grown at 37°C using a shaker at 200 rpm until the OD600 reached 0.6–0.8, after which protein expression was induced using 1‐mM isopropyl β‐D‐1‐thiogalactopyranoside and incubated at 30°C for another 4 h. The cells were harvested and resuspended in 20 mL of 20‐mM Bis‐Tris, 100 mM glycine, pH 6.8 lysis buffer. After cell lysis by sonication, the supernatant was loaded onto a 20 mL Ni‐NTA chelating Sepharose column, pre‐equilibrated with the lysis buffer. Unbound proteins were washed away with 100 mL of the same buffer, and the bound proteins were eluted with a 100 mL linear imidazole gradient (0.0–0.5 M). The eluted fractions were analyzed by SDS‐PAGE to identify PSB‐I containing fractions, which were pooled, concentrated using the Amicon ultracentrifugal filter ([…] molecular weight cut‐off) and loaded on a Superdex75 16/600 preparative grade size‐exclusion chromatography (SEC) column (GE Healthcare, Chicago, USA), pre‐equilibrated with a 20 mM Bis‐Tris, 100 mM glycine, pH 6.8, SEC buffer. Fractions with PSB‐I^143–238 of high purity, based on SDS‐PAGE analysis, were pooled and concentrated to about 22 mg/mL (measured with a NanoDrop 1000, Thermo Scientific, Waltham, USA) and stored in the SEC buffer in 100 μL aliquots at −70°C. All characterizations, crystallization, and crystal testing experiments described below were performed in the Biocenter Oulu core facilities.
(§1) The peptides used in these studies were purchased from TAG Copenhagen A/S (Frederiksberg, Denmark). These peptides (9 residues) start with a free amino group and end with a free carboxylate group. The correct mass and the purity of the peptides (> 95% pure) were analyzed by the company using HPLC and mass spectrometry.
The protein samples of the PSB‐I^143–238 and PSB‐II constructs were prepared at a concentration of 50 μM in SEC buffer, being 20 mM Bis‐Tris, 100 mM glycine, pH 6.8 for PSB‐I^143–238 and 20 mM Tris, 50 mM NaCl, 50 mM glycine, pH 8.0 for PSB‐II (as described earlier). The peptides were dissolved in SEC buffer at a concentration of 3 mM by diluting a 100 mM stock solution in water with SEC buffer. The ITC measurements were carried out at 25°C, using the MicroCal iTC‐200 (Malvern Panalytical Ltd., Malvern, UK). The peptide solution was titrated into a sample cell of 200 μL volume from a syringe that was rotating at 750 rpm. First, 0.4 μL of the peptide solution was injected with a duration of 0.8 s; then, 12 consecutive injections were done, each with a volume of 3 μL, a duration of 6 s, and 180 s spacing time between each injection. For each peptide, at first only buffer in the sample cell (without protein) was titrated, and data were collected as control. Then the data for the PSB sample titrated with the peptide‐containing buffer were collected. The titration data were processed with Origin 7 (OriginLab, Massachusetts, USA) specifically designed for ITC data analysis. The control data that measured the residual heat effect from the peptide dilution were subtracted from the data of the peptide titration with PSB in the sample cell. […]

[2] = molecular target: DD‐I construct (double domain construct of the α‐subunit of C‐P4H‐I); details: calorimetric binding, reported previously; read-out: Affinity (K D) for the PSB‐I domain of the DD‐I construct; cited from earlier work
Excerpt: The affinity properties of the PSB‐I and PSB‐II constructs, as obtained from ITC peptide binding experiments, are shown in Table 2 and Figure S3.

[3] = molecular target: T2, PSB‐II^142–236 construct (peptide‐substrate–binding domain of C‐P4H‐II α‐subunit) (Homo sapiens, UniProt O15460); details: ITC, data described previously, average ± SD of three measurements; cited from earlier work
T2 construct: Met-His6 (N); made in house

[4] = molecular target: T2, PSB‐II^142–236 construct (peptide‐substrate–binding domain of C‐P4H‐II α‐subunit); assay: ITC binding of proline‐rich peptides to the PSB‐II construct; details: 25°C, 50 μM protein, 3 mM peptide, 20 mM Tris, 50 mM NaCl, 50 mM glycine, pH 8.0, one‐set‐of‐sites, fixed n = 1, average ± SD of three measurements
Excerpt: Additional experiments were done with a longer PSB‐I construct, PSB‐I^144–244 (residues Phe144‐Ser244 (Figure 1A), extended by a C‐terminal Leu‐Glu‐(His)6–tag) and with the PSB‐II^142–236 construct (residues Met142‐Glu236 (Figure 1A), preceded at the N‐terminus by a Met‐His6–tag). The expression and purification protocols for the PSB‐I^144–244 construct and the PSB‐II^142–236 construct have been described earlier.
as §1
The protein samples of the PSB‐I^143–238 and PSB‐II constructs were prepared at a concentration of 50 μM in SEC buffer, being 20 mM Bis‐Tris, 100 mM glycine, pH 6.8 for PSB‐I^143–238 and 20 mM Tris, 50 mM NaCl, 50 mM glycine, pH 8.0 for PSB‐II (as described earlier). […] The control data that measured the residual heat effect from the peptide dilution were subtracted from the data of the peptide titration with PSB in the sample cell. The integrated data were analyzed using the one‐set‐of‐sites fitting model with a fixed stoichiometry (n = 1). […]

[5] = test system: C‐P4H‐I; details: cited from earlier work
Excerpt: (§2) Prolines that occur in the PxGP motif cannot be hydroxylated by the C‐P4H catalytic domain, as they are in the X‐position of the XYG‐repeat and the x‐residue at the Y‐position cannot be a proline. […] Low affinity of the (Gly‐Pro‐4Hyp)5 peptide for the PSB co ...

[6] = test system: C‐P4H‐II; details: cited from earlier work
Excerpt: as §2

[7] = test system: PSB‐II construct; details: previous C‐P4H peptide binding studies; cited from earlier work
Excerpt: as §2

[8] = test system: PSB‐I construct; details: previous C‐P4H peptide binding studies; cited from earlier work
Excerpt: as §2

T1 sequence (P13674 160-255): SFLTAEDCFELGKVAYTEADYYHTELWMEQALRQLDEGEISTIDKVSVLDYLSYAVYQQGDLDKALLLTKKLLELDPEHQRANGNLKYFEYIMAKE
T2 sequence (O15460 163-257): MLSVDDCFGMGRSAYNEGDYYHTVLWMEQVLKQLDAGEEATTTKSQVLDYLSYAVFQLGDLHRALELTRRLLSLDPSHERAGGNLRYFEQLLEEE

Compound | ΔG [1] | ΔH [1] | −TΔS [1] | further results
PPGPEGPPG [PPG‐PEG‐PPG] | -5.57 ± 0.02 kcal/mol | -13.2 ± 1.2 kcal/mol | 7.67 ± 1.17 kcal/mol | 
PPPPPPPPP [P9, (Pro)9 peptide] | -5.59 ± 0.10 kcal/mol | -9.5 ± 0.8 kcal/mol | 3.95 ± 0.82 kcal/mol | Kd [2]: 9.8 µM; Kd [3]: > 1.5 mM
PPGPPGPPG [(PPG)3, PPG‐PPG‐PPG peptide] | -4.83 ± 0.06 kcal/mol | -13.6 ± 1.7 kcal/mol | 8.77 ± 1.66 kcal/mol | Kd [2]: 144 µM; K D [3]: Not detectable
C[C@H](NC(=O)[C@@H]1CCCN1C(=O)CNC(=O)[C@@H]1CCCN1C(=O)[C@@H]1CCCN1)C(=O)NCC(=O)N1CCC[C@H]1C(=O)N1CCC[C@H]1C(=O)NCC(=O)O [PPG‐PAG‐PPG] | -5.51 ± 0.02 kcal/mol | -12.4 ± 0.5 kcal/mol | 6.86 ± 0.49 kcal/mol | 
C[C@H](NC(=O)[C@@H]1CCCN1C(=O)CNC(=O)[C@@H]1C[C@@H](O)CN1C(=O)[C@@H]1CCCN1)C(=O)NCC(=O)N1CCC[C@H]1C(=O)N1C[C@H](O)C[C@H]1C(=O)NCC(=O)O [POG‐PAG‐POG] | -5.60 ± 0.08 kcal/mol | -12.7 ± 0.2 kcal/mol | 7.07 ± 0.25 kcal/mol | Kd [4]: 26.2 ± 1.9 µM; Kd ([1]; 50 μM protein in cell, 3 mM peptide in syringe, pH 6.8, one‐set‐of‐sites model, fixed n = 1, average ± SD of three measurements): 79.6 ± 9.6 µM
(Gly‐Pro‐4Hyp)5 [model peptide with a hydroxyproline at the Y‐position of each tripeptide repeat] |  |  |  | Substrate of C‐P4H‐I [5]: not a substrate; Substrate of C‐P4H‐II [6]: not a substrate; Affinity for the PSB‐II construct relative to (PPG)5 [7]: much lower affinity than the (PPG)5 substrate peptide; Affinity for the PSB‐I construct relative to (PPG)5 [8]: much lower affinity than the (PPG)5 substrate peptide
PPGPRGPPG [PPG‐PRG‐PPG] | -6.06 ± 0.04 kcal/mol | -14.9 ± 0.4 kcal/mol | 8.87 ± 0.37 kcal/mol | 
